According to PMC8786148, “The effects of magainin 2-derived and rationally designed antimicrobial peptides on Mycoplasma pneumoniae” (PLoS ONE, 2022):
Marks after values point to notes of the source that are not given here.

What was measured:
Mycoplasma pneumoniae FH [1] = experiment: Killing assay, strain FH; details: for Killing assay result compared with saline / Cell numbers (CFU/mL) after treatment with antimicrobial peptides, killing assay: 30 μmol/L AMP, 3 days; for Killing assay result compared with saline: Welch's t test; for Cell numbers (CFU/mL) after treatment with antimicrobial peptides, killing assay / CFU/mL after treatment, killing assay: triplicate, mean; for Cell numbers (CFU/mL) after treatment with antimicrobial peptides, killing assay: saline 3.59×10^6; for CFU/mL after treatment, killing assay: 3 d at 37°C
Pasteurella multocida = tested on: Pasteurella multocida; parameters: method as in PMID 29771981; details: bovine pathogen; cited from earlier work
Mycoplasma pneumoniae FH [2] = experiment: Colorimetric assay (absorbance at 560 nm), strain FH; details: initial 10^5 CFU/mL
Mannheimia haemolytica = tested on: Mannheimia haemolytica; parameters: method as in PMID 29771981; details: bovine pathogen; cited from earlier work
Histophilus somni = tested on: Histophilus somni; parameters: method as in PMID 29771981; details: bovine pathogen; cited from earlier work
M. bovis = details: cited from earlier work
[3] = tested on: M. pneumoniae strains FH, M52, Mac, Bru, and M129-B7; experiment: Propidium iodide (PI) uptake assay, membrane disruption; format: cell-based, Mycoplasma pneumoniae; details: five strains; 10 μmol/L AMP; PI 5 μg/mL in PBS; read every 2 min up to 20 min; triplicate
Description: We performed the PI uptake assays based on the previously described method with modification for M. pneumoniae. M. pneumoniae strains FH, M52, Mac, Bru, and M129-B7 were cultured as described above. Briefly, the 90 mL culture was done in PPLO-based medium for 6 days to observe the medium color change from red to yellow. The mycoplasma in the culture medium was centrifuged at 11,740g for 30 min at 4°C, and the precipitation was suspended in 20 mL phosphate buffered saline (PBS) by passing through a 60 mm-length 25-gauge needle (Top Corporation, Tokyo, Japan) three times. The suspension was centrifuged again at 11,740g for 30 min at 4°C, and 2.25 mL PBS was added to the precipitation. The 2× mycoplasma suspension was prepared by passing through a 60 mm-length 25-gauge needle five times. When using heat-killed M. pneumoniae (HKMp), the 2× suspension was heated at 95°C for 10 min. The 2× PI assay reaction mix based on PBS containing 20 μmol/L of an antimicrobial peptide or saline, and 10 μg/mL PI (Dojindo, Tokyo, Japan). Each assay was performed with a 96-well black flat-bottomed plate (PerkinElmer, Waltham, MA, USA) using a final cell volume of 100 μL prepared by mixing 2× mycoplasma suspension and 2× PI assay reaction mix at 1:1 in volume ratio. The intercalation fluorescence of PI was measured by using an Infinite 200 Pro F Plex microplate reader (Tecan, Zürich, Switzerland) every 2 min, with an excitation filter at 535 nm (half width: 25 nm) and an emission filter at 620 nm (half width: 20 nm). The averages and standard deviations of the fluorescent intensities was calculated, and normalised by an average fluorescence between 10 and 20 min of HKMp as 100% relative fluorescence, and by a minimum average fluorescence between 0 and 20 min of whole data as 0% relative fluorescence.

[4] = previously reported; cited from earlier work
Mycoplasma pneumoniae FH [5] = experiment: Biofilm assay (crystal violet, absorbance at 550 nm), strain FH; details: initial 10^5 CFU/mL, 0% CO2, 6-8 days at 37°C; for Concentration with statistically significant effect in the biofilm assay: p < 0.005, Shirley-Williams test
[6] = tested on: Mycoplasma pneumoniae M52; experiment: Killing assay, strain M52; details: 3 days; for Titre (CFU/mL), killing assay: initial 10^6 CFU/mL, triplicate, mean
[7] = tested on: Mycoplasma pneumoniae M129-B7; experiment: Killing assay, strain M129-B7; details: 3 days; for Titre (CFU/mL), killing assay: initial 10^6 CFU/mL, triplicate, mean
[8] = tested on: Mycoplasma pneumoniae Mac; experiment: Colorimetric and biofilm assays, strain Mac
[9] = tested on: Mycoplasma pneumoniae M52; experiment: Colorimetric and biofilm assays, strain M52
[10] = tested on: Mycoplasma pneumoniae Mac; experiment: Killing assay, strain Mac; details: 3 days; for Titre (CFU/mL), killing assay: initial 10^6 CFU/mL, triplicate, mean
[11] = tested on: Mycoplasma pneumoniae Bru; experiment: Killing assay, strain Bru; details: 3 days; for Titre (CFU/mL), killing assay: initial 10^6 CFU/mL, triplicate, mean
[12] = tested on: Mycoplasma pneumoniae M129-B7; experiment: Colorimetric and biofilm assays, strain M129-B7; format: cell-based
[13] = tested on: Mycoplasma pneumoniae Bru; experiment: Colorimetric and biofilm assays, strain Bru
Staphylococcus aureus = tested on: Staphylococcus aureus; parameters: method as in PMID 28789896, PMID 31303986, PMID 33369262; details: previously reported; cited from earlier work
Pseudomonas aeruginosa = tested on: Pseudomonas aeruginosa; parameters: method as in PMID 28789896, PMID 31303986, PMID 33369262; details: previously reported; cited from earlier work
[14] = tested on: Staphylococcus epidermidis; parameters: method as in PMID 28789896, PMID 31303986, PMID 33369262; details: previously reported; cited from earlier work
Escherichia coli = tested on: Escherichia coli; parameters: method as in PMID 28789896, PMID 31303986, PMID 33369262; details: previously reported; cited from earlier work
[15] = tested on: four strains of M. pneumoniae; experiment: Biofilm assay, four strains taken together; details: four strains (Bru, M129-B7, Mac, M52); inferred from enhanced biofilm production below 30 μmol/L
[16] = colorimetric and biofilm assays
[17] = up to 30 μmol/L, Shirley-Williams test

## H-TVIEVASKMCSKMRLLKGLCKSITKRFLRR-NH2 [NK2A, reference compound]
Mycoplasma pneumoniae FH [1]; p < 0.005
  Killing assay result compared with saline: limited influence on the growth
Mycoplasma pneumoniae FH [1]; initial 10^6 CFU/mL
  Cell numbers (CFU/mL) after treatment with antimicrobial peptides, killing assay: 2.87×10^6 CFU/mL
Pasteurella multocida
  Effective concentration against Pasteurella multocida: 5 µmol/L
Mycoplasma pneumoniae FH [2]; 0% CO2, up to 30 μmol/L
  Effect in the colorimetric assay: no difference
Mannheimia haemolytica
  Effective concentration against Mannheimia haemolytica: 5 µmol/L
Histophilus somni
  Effective concentration against Histophilus somni: 5 µmol/L
M. bovis
  Effective concentration against M. bovis: 20 µmol/L
[3]
  PI fluorescence compared with live Mp without peptide: the PI fluorescence arose
[4]
  Haemolysis (concentration with haemolytic effect): 5 µmol/L
Mycoplasma pneumoniae FH [5]
  Concentration with statistically significant effect in the biofilm assay: 30 µmol/L

## C[C@@H]1CN(c2c(F)c(N)c3c(=O)c(C(=O)O)cn(C4CC4)c3c2F)C[C@H](C)N1 [Sparfloxacin]
[6]; p < 0.005
  Concentration with statistically significant result, killing assay: 0.0625 µg/mL
[6]; sparfloxacin 0.0156 μg/mL
  Titre (CFU/mL), killing assay: 2.95×10^6 CFU/mL
[6]; sparfloxacin 0.0313 μg/mL
  Titre (CFU/mL), killing assay: 2.02×10^6 CFU/mL
[6]; sparfloxacin 0.0625 μg/mL
  Titre (CFU/mL), killing assay: 8.00×10^5 ^a CFU/mL
[6]; sparfloxacin 0.125 μg/mL
  Titre (CFU/mL), killing assay: 1.99×10^5 ^a CFU/mL
[6]; sparfloxacin 0.25 μg/mL
  Titre (CFU/mL), killing assay: 3.24×10^4 ^a CFU/mL
Mycoplasma pneumoniae FH [1]; 1 h treatment, SPFX 0.0625-0.25 μg/mL, AMPs 30 μmol/L, S3 Fig
  Change in CFU, killing assay with 1 h incubation: no change in the CFU values
Mycoplasma pneumoniae FH [1]; initial 10^6 CFU/mL, 3 d incubation, p < 0.005
  Concentration with significant difference in CFU, killing assay: above 0.0625 μg/mL
Mycoplasma pneumoniae FH [1]; sparfloxacin 0.0156 μg/mL, initial 10^6 CFU/mL
  CFU/mL after treatment, killing assay: 6.57×10^6 CFU/mL
Mycoplasma pneumoniae FH [1]; sparfloxacin 0.0313 μg/mL, initial 10^6 CFU/mL
  CFU/mL after treatment, killing assay: 2.33×10^6 CFU/mL
Mycoplasma pneumoniae FH [1]; sparfloxacin 0.0625 μg/mL, initial 10^6 CFU/mL
  CFU/mL after treatment, killing assay: 1.39×10^5 ^a CFU/mL
Mycoplasma pneumoniae FH [1]; sparfloxacin 0.125 μg/mL, initial 10^6 CFU/mL
  CFU/mL after treatment, killing assay: 1.30×10^4 ^a CFU/mL
Mycoplasma pneumoniae FH [1]; sparfloxacin 0.25 μg/mL, initial 10^6 CFU/mL
  CFU/mL after treatment, killing assay: 5.50×10^3 ^a CFU/mL
[7]; p < 0.005
  Concentration with statistically significant result, killing assay: 0.0625 µg/mL
[7]; sparfloxacin 0.0156 μg/mL
  Titre (CFU/mL), killing assay: 3.57×10^6 CFU/mL
[7]; sparfloxacin 0.0313 μg/mL
  Titre (CFU/mL), killing assay: 2.26×10^6 CFU/mL
[7]; sparfloxacin 0.0625 μg/mL
  Titre (CFU/mL), killing assay: 8.73×10^5 ^a CFU/mL
[7]; sparfloxacin 0.125 μg/mL
  Titre (CFU/mL), killing assay: 1.31×10^5 ^a CFU/mL
[7]; sparfloxacin 0.25 μg/mL
  Titre (CFU/mL), killing assay: 1.12×10^4 ^a CFU/mL
[8]; [16]
  Concentration that completely attenuated the growth: 0.25 µg/mL
[9]; [16]
  Concentration that completely attenuated the growth: 0.25 µg/mL
[10]; p < 0.005
  Concentration with statistically significant result, killing assay: 0.0625 µg/mL
[10]; sparfloxacin 0.0156 μg/mL
  Titre (CFU/mL), killing assay: 2.66×10^6 CFU/mL
[10]; sparfloxacin 0.0313 μg/mL
  Titre (CFU/mL), killing assay: 1.86×10^6 CFU/mL
[10]; sparfloxacin 0.0625 μg/mL
  Titre (CFU/mL), killing assay: 3.88×10^5 ^a CFU/mL
[10]; sparfloxacin 0.125 μg/mL
  Titre (CFU/mL), killing assay: 2.17×10^4 ^a CFU/mL
[10]; sparfloxacin 0.25 μg/mL
  Titre (CFU/mL), killing assay: 2.90×10^3 ^a CFU/mL
[11]; p < 0.005
  Concentration with statistically significant result, killing assay: 0.0625 µg/mL
[11]; sparfloxacin 0.0156 μg/mL
  Titre (CFU/mL), killing assay: 2.52×10^6 CFU/mL
[11]; sparfloxacin 0.0313 μg/mL
  Titre (CFU/mL), killing assay: 1.80×10^6 CFU/mL
[11]; sparfloxacin 0.0625 μg/mL
  Titre (CFU/mL), killing assay: 8.41×10^5 ^a CFU/mL
[11]; sparfloxacin 0.125 μg/mL
  Titre (CFU/mL), killing assay: 1.52×10^5 ^a CFU/mL
[11]; sparfloxacin 0.25 μg/mL
  Titre (CFU/mL), killing assay: 1.81×10^4 ^a CFU/mL
[12]; strain M129-B7, colorimetric and biofilm assays
  Concentration that completely attenuated the growth: 0.25 µg/mL
Mycoplasma pneumoniae FH [2]; 0% CO2, 6-8 days at 37°C, absorbance 560 nm
  Concentration giving complete repression of the growth, colorimetric assay: higher than 0.0625 μg/mL
[13]; [16]
  Concentration that completely attenuated the growth: 0.25 µg/mL
Mycoplasma pneumoniae FH [5]; crystal violet, absorbance 550 nm
  Concentration giving complete repression of the growth, biofilm assay: > 0.25 µg/mL

## H-KKKKKKKKKGGGLLALLALLA-NH2 [Block]
[6]; AMP 30 μmol/L, saline 3.62×10^6
  Titre (CFU/mL), killing assay: 3.89×10^5 ^b CFU/mL
Mycoplasma pneumoniae FH [1]; p < 0.005
  Killing assay result compared with saline: significant difference
Mycoplasma pneumoniae FH [1]; initial 10^6 CFU/mL
  Cell numbers (CFU/mL) after treatment with antimicrobial peptides, killing assay: 5.91×10^5 CFU/mL
[7]; AMP 30 μmol/L, saline 3.79×10^6
  Titre (CFU/mL), killing assay: 4.84×10^5 ^b CFU/mL
Staphylococcus aureus
  MIC, Gram-positive, S. a.: 12.5 µM
Pseudomonas aeruginosa
  MIC, Gram-negative, P. a.: 6.25 µM
[8]; biofilm assay, 16 μmol/L
  Biofilm formation at 16 μmol/L: enhancement of biofilm formation
[8]; biofilm assay, 30 μmol/L
  Biofilm amount at 30 μmol/L: slight drop in the biofilm amount
[8]; [17]
  Effect in the biofilm assay: no statistically significant effect
[9]; biofilm assay, 16 μmol/L
  Biofilm formation at 16 μmol/L: enhancement of biofilm formation
[9]; biofilm assay, 30 μmol/L
  Biofilm amount at 30 μmol/L: no effect
[9]; [17]
  Effect in the biofilm assay: no statistically significant effect
[10]; AMP 30 μmol/L, saline 4.19×10^6
  Titre (CFU/mL), killing assay: 4.30×10^5 ^b CFU/mL
[11]; AMP 30 μmol/L, saline 3.48×10^6
  Titre (CFU/mL), killing assay: 2.32×10^5 ^b CFU/mL
[12]; strain M129-B7, biofilm assay, 16 μmol/L
  Biofilm formation at 16 μmol/L: enhancement of biofilm formation
[12]; strain M129-B7, up to 30 μmol/L, Shirley-Williams test
  Effect in the biofilm assay: no statistically significant effect
[12]; strain printed B129-B7, biofilm assay, 30 μmol/L
  Biofilm amount at 30 μmol/L: no effect
[14]
  MIC, Gram-positive, S. e: 6.25 µM
[13]; biofilm assay, 16 μmol/L
  Biofilm formation at 16 μmol/L: enhancement of biofilm formation
[13]; biofilm assay, 30 μmol/L
  Biofilm amount at 30 μmol/L: slight drop in the biofilm amount
[13]; [17]
  Effect in the biofilm assay: no statistically significant effect
Escherichia coli
  MIC, Gram-negative, E. c.: 6.25 µM
[3]
  PI fluorescence compared with live Mp without peptide: highest fluorescence
[15]
  Concentration of anti-Mp effect indicated by the biofilm assay: > 30 µmol/L
Mycoplasma pneumoniae FH [5]
  Concentration with statistically significant effect in the biofilm assay: 30 µmol/L
